Laboratory results as given in patent publication US9187523B2 (priority 2006, dated 2015).
Where a SMILES comes first, the peptide text is derived from it. The star is where a group is joined. Dabcyl = CN(C)c1ccc(N=Nc2ccc(C(=O)*)cc2)cc1; EDANS = O=S(=O)(O)c1cccc2c(NCCN*)cccc12

System: Yersinia pestis cells lacking plague plasminogen activator gene
Format: cell-based

CC[C@H](C)[C@H](NC(=O)[C@H](CCCNC(=N)N)NC(=O)[C@H](CCCNC(=N)N)NC(=O)c1ccc(N=Nc2ccc(N(C)C)cc2)cc1)C(=O)N[C@@H](CC(N)=O)C(=O)N[C@@H](CCCNC(=N)N)C(=O)N[C@@H](CCC(=O)NCCNc1cccc2c(S(=O)(=O)O)cccc12)C(N)=O [DABCYL-Arg-Arg-Ile-Asn-Arg-Glu-(EDANS)-NH2] (Dabcyl-RRINRE(EDANS)-NH2)
fluorescence with Pla-negative mutant: low background fluorescence
